From US20090074815A1, “Immunomodulator Compounds as Vaccine Enhancers” (SCICLONE PHARMACEUTICALS, INC., priority 2005, published 2009)

What was measured:
[1] = tested on: IL-2 production by OvA-stimulated splenocytes; assay: OvA-stimulated production of IL-2 by splenocytes of OvA-immunized mice; conditions: OvA/FA
Protocol: The OvA was administered subcutaneously to the crest in a volume of 200 μl. Mice were immunized on day 1 with OvA in complete Freund's adjuvant (CFA; Sigma) and on day 15 with the antigen in incomplete Freund's adjuvant (IFA; Sigma). The immune response was analyzed on day 29. Mice were also immunized with 10 μg/mouse of OvA using Alum as an adjuvant.
Thymuses and spleens from mice of each treatment group were pooled, and then minced with scissors. The minced tissues were suspended in sterile PBS to form cell suspensions, filtered through a double gauze layer and centrifuged. Cells were washed twice with PBS, re-suspended in RPMI-1640 (Sigma) with 2.0 mM of L-glutamine, 50 μM of mercaptoethanol, and 10 μg/ml of gentamycin (complete medium); and cell counts were made. (The splenocyte suspension was washed with a 0.86% solution of NH4Cl to pre-lyse erthrocytes.)
Assessment of Mitogen- and Antigen-Induced Production of Cytokines: Thymic cells (1×10^6/well) in complete medium with 2% FCS were stimulated with ConA (0, 1, and 2 μg/ml). Splenocytes (1×10^6/well) in complete medium with 5% FCS were stimulated with ConA (0, 1, and 5 μg/ml) and with OvA (0-100 μg/ml). […] Supernatants from OvA-stimulated cultures were collected after 72 hours. Supernatants from both cultures were frozen, and kept at 20° C. Concentrations of IL-2, IL-4, IL-10, IL-12R40 and IFNγ in the supernatants were determined by solid-phase EIA with EIA Expansion Kits, available from BD Biosciences (formerly Pharmingen), in accordance with the manufacturer's instructions.

bone marrow cells = assay: Expression of Thy1 marker by bone marrow cells (flow cytometry) after SCV-07 treatment; type: in vivo, mice
Source text: Materials and Methods: Eighteen (18) to twenty (20) gram (g) male mice, purchased from the Rappolovo Animal Facility, Russia, were used in the studies described below. C57BL/6 (B6) mice were used to evaluate the effect of SCV-07 in non-immunized mice. CBAxC57BL/6 (F1) mice were used for studies of the effects of SCV-07 on the antigen-specific immune response. Mice were kept under the standard animal facility conditions and were provided with a standard diet and water ad libitum. Each treatment group included 4-5 mice. […] A suspension containing filling agents alone, which corresponded to the maximum amount of filling agents in the doses of SCV-07 administered to experimental animals, was used a control. Thigh bones were removed from treated mice under aseptic conditions, and the medullary cavities were […] washed with PBS. Fragments of the bone marrow were minced by passing the tissue through a syringe needle. The resulting cell suspension was filtered through a double gauze layer and washed in PBS. After erythrocytes were lysed, the cells were counted and transferred to flat bottom culture plates. Due to an almost complete lack of spontaneous proliferation, the absolute values of proliferation, which were expressed as counts per minute (CPM), were determined and the Con A-induced proliferation of thymic cells from animals of different groups were compared. Analysis by Flow Cytometry: […] Immunomodulatory Activity of SCV-07 After Oral Administration: Thy1-positive lymphocytes, the precursors of T-cells in the bone marrow, increased in a dose-dependent manner in mice after treatment with SCV-07 per os. These increases were analogous to those observed in mice which received SCV-07 i.p (Table 2).

[2] = Indices of humoral immunity (CD20+, IgA, IgM, IgG, CH50, circulating immune complexes) before and after vaccination; conditions: patients with infectious syndrome, hepatitis B vaccination with SCV-07, after vaccination, n = 16, M ± m
Protocol: This group, which received SCV-07 and hepatitis B vaccine, included thirty-three (33) essentially healthy students from the Chelyabinsk State Medical Academy.
The hepatitis vaccine Engerix-B® produced by SmithKlineBeecham-Biomed (Russia) was administered as a course of 3 doses given at months 0, 1, and 6. Immunological examinations of the subjects were carried out before the first administration of the vaccine and at one month after completion of the course of immunization.
Participants were evaluated to determine levels of leukocytes in peripheral blood, leukocytary formula, the presence of marker specific lymphocytes (CD3, CD4, CD8, CD16, CD95 and CD20), lysosomal activity of neutrophils; oxygen-dependent metabolism with spontaneous and induced hematocrit (HCT) tests, phagocytary function of neutrophils according to the latex particle absorption model; immunoglobulin IgA, IgM, IgG concentrations; total hemolytic activity of complement (CH50) in blood serum and for circulating immune complexes. […] A concentration of 10 MU/liter (l) was assumed to be a protective hepatitis B titer.
The immunomodulator SCV-07 was administered at the same time as the hepatitis B vaccine to determine if SCV-07 increased the efficacy of vaccination and to determine if it would correct the immunity disorders of subjects with infectious syndrome. A one milligram (1 mg) dose of SCV-07 was administered as an intra muscular injection to the 32 subjects of Group 2 of the study on days one to five, where day one was the day the first dose of the hepatitis B vaccine was administered. One (1) mg of SCV-07 was also administered with the second and third doses of vaccine one month and 6 months following administration of the initial vaccine dose. Study participants in Group I received injections of physiological saline which were administered on the same schedule as the SCV-07 to provide a placebo control group.

[3] = tested on: IL-4 production by ConA-stimulated splenocytes; assay: IL-4 production by ConA-stimulated splenocytes (EIA); type: in vivo, mice

N[C@H](CCC(=O)N[C@@H](Cc1c[nH]c2ccccc12)C(=O)O)C(=O)O [SCV-07, γ-D-glutamyl-L-tryptophan]
Production of IL-2 by splenocytes ([1]; 0.1 μg/kg i/p, OvA 1 μg/ml): 10.2 pg/mL
Production of IL-2 by splenocytes, % (% of control) ([1]; 0.1 μg/kg i/p, OvA 1 μg/ml): 13.0%
Production of IL-2 by splenocytes ([1]; 0.1 μg/kg i/p, OvA 10 μg/ml): 72.7 pg/mL
Production of IL-2 by splenocytes, % (% of control) ([1]; 0.1 μg/kg i/p, OvA 10 μg/ml): 92.7%
Production of IL-2 by splenocytes ([1]; 0.1 μg/kg i/p, OvA 25 μg/ml): 85.8 pg/mL
Production of IL-2 by splenocytes, % (% of control) ([1]; 0.1 μg/kg i/p, OvA 25 μg/ml): 109.4%
Production of IL-2 by splenocytes ([1]; 0.1 μg/kg i/p, OvA 100 μg/ml): 95.5 pg/mL
Production of IL-2 by splenocytes, % (% of control) ([1]; 0.1 μg/kg i/p, OvA 100 μg/ml): 121.8%
Production of IL-2 by splenocytes ([1]; 0.1 μg/kg per os, OvA 0 μg/ml): 211.8 pg/mL
Production of IL-2 by splenocytes ([1]; 0.1 μg/kg per os, OvA 1 μg/ml): 68.7 pg/mL
Production of IL-2 by splenocytes ([1]; 0.1 μg/kg per os, OvA 10 μg/ml): 92.9 pg/mL
Production of IL-2 by splenocytes ([1]; 0.1 μg/kg per os, OvA 25 μg/ml): 252.5 pg/mL
Production of IL-2 by splenocytes ([1]; 0.1 μg/kg per os, OvA 100 μg/ml): 94.8 pg/mL
Production of IL-2 by splenocytes ([1]; 1.0 μg/kg i/p, OvA 0 μg/ml): 147.7 pg/mL
Production of IL-2 by splenocytes ([1]; 1.0 μg/kg i/p, OvA 1 μg/ml): 116.5 pg/mL
Production of IL-2 by splenocytes, % (% of control) ([1]; 1.0 μg/kg i/p, OvA 1 μg/ml): 78.9%
Production of IL-2 by splenocytes ([1]; 1.0 μg/kg i/p, OvA 10 μg/ml): 317.3 pg/mL
Production of IL-2 by splenocytes, % (% of control) ([1]; 1.0 μg/kg i/p, OvA 10 μg/ml): 214.8%
Production of IL-2 by splenocytes ([1]; 1.0 μg/kg i/p, OvA 25 μg/ml): 363.1 pg/mL
Production of IL-2 by splenocytes, % (% of control) ([1]; 1.0 μg/kg i/p, OvA 25 μg/ml): 245.8%
Production of IL-2 by splenocytes ([1]; 1.0 μg/kg i/p, OvA 100 μg/ml): 564.4 pg/mL
Production of IL-2 by splenocytes, % (% of control) ([1]; 1.0 μg/kg i/p, OvA 100 μg/ml): 382.1%
Production of IL-2 by splenocytes ([1]; 1.0 μg/kg per os, OvA 0 μg/ml): 122.4 pg/mL
Production of IL-2 by splenocytes ([1]; 1.0 μg/kg per os, OvA 1 μg/ml): 82.7 pg/mL
Production of IL-2 by splenocytes ([1]; 1.0 μg/kg per os, OvA 10 μg/ml): 304.2 pg/mL
Production of IL-2 by splenocytes ([1]; 1.0 μg/kg per os, OvA 25 μg/ml): 152.9 pg/mL
Production of IL-2 by splenocytes ([1]; 1.0 μg/kg per os, OvA 100 μg/ml): 282.8 pg/mL
Production of IL-2 by splenocytes ([1]; 10.0 μg/kg per os, OvA 0 μg/ml): 163 pg/mL
Production of IL-2 by splenocytes ([1]; 10.0 μg/kg per os, OvA 1 μg/ml): 80.2 pg/mL
Production of IL-2 by splenocytes ([1]; 10.0 μg/kg per os, OvA 10 μg/ml): 305.4 pg/mL
Production of IL-2 by splenocytes ([1]; 10.0 μg/kg per os, OvA 25 μg/ml): 287.2 pg/mL
Production of IL-2 by splenocytes ([1]; 10.0 μg/kg per os, OvA 100 μg/ml): 478.2 pg/mL
Thy-1 positive cells, % (bone marrow cells; 0.1 μg/kg per os): 12.9 ± 1.2%
Thy-1 positive cells, % (bone marrow cells; 1.0 μg/kg i/p): 15.4 ± 0.1%
Thy-1 positive cells, % (bone marrow cells; 1.0 μg/kg per os): 14.9 ± 1.3%
Thy-1 positive cells, % (bone marrow cells; 10.0 μg/kg per os): 16.0 ± 0.7%
Thy-1 positive cells, % (bone marrow cells; 100.0 μg/kg per os): 16.0 ± 1.2%
CD20+ % [2]: 15.93 ± 1.20%
CH50, conv. units [2]: 64.53 ± 4.11 conv. units
CIC, conv. units [2]: 53.93 ± 8.03 conv. units
IgA [2]: 1.821 ± 0.087 g/L
IgG [2]: 8.931 ± 0.481 g/L
IgM [2]: 1.179 ± 0.089 g/L
IL-4 ([3]; ConA 1 μg/ml, 0.01 μg/kg per os): 98.7 pg/mL
IL-4 ([3]; ConA 1 μg/ml, 0.1 μg/kg i/p): 62.1 pg/mL
IL-4 ([3]; ConA 1 μg/ml, 0.1 μg/kg per os): 78.9 pg/mL
IL-4 ([3]; ConA 1 μg/ml, 1.0 μg/kg i/p): 52.8 pg/mL
IL-4 ([3]; ConA 1 μg/ml, 1.0 μg/kg per os): 95.8 pg/mL
IL-4 ([3]; ConA 1 μg/ml, 10.0 μg/kg per os): 53.8 pg/mL
IL-4 ([3]; ConA 1 μg/ml, 100.0 μg/kg per os): 83.1 pg/mL
IL-4 ([3]; ConA 5 μg/ml, 0.01 μg/kg per os): 284.9 pg/mL
IL-4 ([3]; ConA 5 μg/ml, 0.1 μg/kg i/p): 277.5 pg/mL
IL-4 ([3]; ConA 5 μg/ml, 0.1 μg/kg per os): 229.6 pg/mL
IL-4 ([3]; ConA 5 μg/ml, 1.0 μg/kg i/p): 152.9 pg/mL
IL-4 ([3]; ConA 5 μg/ml, 1.0 μg/kg per os): 260.0 pg/mL
IL-4 ([3]; ConA 5 μg/ml, 10.0 μg/kg per os): 275.0 pg/mL
IL-4 ([3]; ConA 5 μg/ml, 100.0 μg/kg per os): 192.0 pg/mL
IL-4 ([3]; Spontaneous, 0.01 μg/kg per os): 6.1 pg/mL
IL-4 ([3]; Spontaneous, 0.1 μg/kg i/p): 4.2 pg/mL
IL-4 ([3]; Spontaneous, 0.1 μg/kg per os): 0.0 pg/mL
IL-4 ([3]; Spontaneous, 1.0 μg/kg i/p): 0.0 pg/mL
IL-4 ([3]; Spontaneous, 1.0 μg/kg per os): 25.3 pg/mL
IL-4 ([3]; Spontaneous, 10.0 μg/kg per os): 19.4 pg/mL
IL-4 ([3]; Spontaneous, 100.0 μg/kg per os): 27.1 pg/mL
